Common to all, as to assay type: in vivo, human
Data set [1] concerns chronic lumbalgia. Description: WOMAC questionnaire, 10-day satisfaction study in 12 volunteers. On the procedure: More precisely, the WOMAC score is calculated on the basis of the responses to the questions below: The total score corresponds to the average of the 24 items. The same is true for the score for each area of assessment. A satisfaction study was carried out on a group of 12 volunteers, aged 42±8 years, consisting of seven female and five male subjects. The main objective of this study was to evaluate the level of satisfaction of subjects with regard to the evolution of their lumbalgia (low back pain) during the morning and/or evening application of a composition according to the invention containing 5% by weight of NMN. A composition in the form of an oil-in-water emulsion comprising 5% NMN was formulated as follows, the ingredients being designated by their INCI (International Nomenclature of Cosmetic Ingredients) name: Aqua, Paraffinum liquidum, Cetyl alcohol, Glyceryl stearate, Benzyl PCA, Ceteareth-20, Ceteareth-12, Cetyl Palmitate, Cocoglycerides, Cetearyl alcohol, Sodium Hydroxide, NMN. The composition was prepared according to any method well known to the person skilled in the art. The study took place over 10 days. At baseline, ie upon inclusion (DO), the selected subjects provide their demographic characteristics (age, weight, height), indicate the period of persistence and intensity of the pain on a Visual Analogue Scale, and complete the WOMAC and Lequesne questionnaires. These different scales were used in order to assess by different means the effect of NMN on lumbalgia. On day 10, the volunteers complete the WOMAC questionnaire, the Lequesne questionnaire, the Visual Analogue Scale (VAS) of pain, indicating the perceived improvement in lumbalgia pain relief as measured by the PGI-I index (abbreviation for “Patient Global Improvement Impression”), satisfaction with regard to evolution of the lumbalgia on a Likert scale as well as the ease of application and penetration of the composition, assessment of the texture and odour of the composition, likelihood of re-use thereof in the event of recurrence of a similar pain, and recommendation of use to third parties presenting with pain of similar nature. The PGI-I index is an index that serves as means for evaluating the response to a treatment. The Likert scale is a psychometric tool used for measuring an attitude in individuals, which consists of one or more statements for which the individual responding expresses their degree of agreement or disagreement.

The subject of data set [2] is chronic lumbalgia. The data set is described as follows: Perceived improvement (PGI-I index) and satisfaction with evolution of lumbalgia (Likert scale). The following applies: end of the study. On the procedure:
A satisfaction study was carried out on a group of 12 volunteers, aged 42±8 years, consisting of seven female and five male subjects. The main objective of this study was to evaluate the level of satisfaction of subjects with regard to the evolution of their lumbalgia (low back pain) during the morning and/or evening application of a composition according to the invention containing 5% by weight of NMN. A composition in the form of an oil-in-water emulsion comprising 5% NMN was formulated as follows, the ingredients being designated by their INCI (International Nomenclature of Cosmetic Ingredients) name: Aqua, Paraffinum liquidum, Cetyl alcohol, Glyceryl stearate, Benzyl PCA, Ceteareth-20, Ceteareth-12, Cetyl Palmitate, Cocoglycerides, Cetearyl alcohol, Sodium Hydroxide, NMN. The composition was prepared according to any method well known to the person skilled in the art. On day 10, the volunteers complete the WOMAC questionnaire, the Lequesne questionnaire, the Visual Analogue Scale (VAS) of pain, indicating the perceived improvement in lumbalgia pain relief as measured by the PGI-I index (abbreviation for “Patient Global Improvement Impression”), satisfaction with regard to evolution of the lumbalgia on a Likert scale as well as the ease of application and penetration of the composition, assessment of the texture and odour of the composition, likelihood of re-use thereof in the event of recurrence of a similar pain, and recommendation of use to third parties presenting with pain of similar nature. The PGI-I index is an index that serves as means for evaluating the response to a treatment. The Likert scale is a psychometric tool used for measuring an attitude in individuals, which consists of one or more statements for which the individual responding expresses their degree of agreement or disagreement.

Data set [3] is described as follows: Adverse side effects and allergies reported by the volunteers. The following applies: 10 days topical use of 5% NMN emulsion, 12 volunteers. The procedure:
A satisfaction study was carried out on a group of 12 volunteers, aged 42±8 years, consisting of seven female and five male subjects. The main objective of this study was to evaluate the level of satisfaction of subjects with regard to the evolution of their lumbalgia (low back pain) during the morning and/or evening application of a composition according to the invention containing 5% by weight of NMN.
A composition in the form of an oil-in-water emulsion comprising 5% NMN was formulated as follows, the ingredients being designated by their INCI (International Nomenclature of Cosmetic Ingredients) name: Aqua, Paraffinum liquidum, Cetyl alcohol, Glyceryl stearate, Benzyl PCA, Ceteareth-20, Ceteareth-12, Cetyl Palmitate, Cocoglycerides, Cetearyl alcohol, Sodium Hydroxide, NMN. The composition was prepared according to any method well known to the person skilled in the art.
Over the subsequent 9 day period, each evening the subjects fill in the Visual Analogue Scale of pain, ensuring any discomfort or problems arising or the taking of analgesics are reported therein.

Setting [4] is: after 10 days vs baseline, p<0.001.

`NC(=O)c1ccc[n+]([C@@H]2O[C@H](COP(=O)([O-])O)[C@@H](O)[C@H]2O)c1` (stereo in doubt) [NMN, nicotinamide mononucleotide]: the “WOMAC "function" criterion” value in data set [1] (after 10 days of application, baseline 57.1±15.5, 5% NMN emulsion topical) turned out to be 30.8±21.8. The “total WOMAC score” value in data set [1] (after 10 days of application, baseline 58.3±14.8, 5% NMN emulsion topical) is recorded as 30.9±21.7. The “WOMAC "pain" criterion” value in data set [1] (after 10 days of application, baseline 59.9±13.1, 5% NMN emulsion topical) was 31.0±21.2. For the same compound, the “WOMAC "stiffness" criterion” value in data set [1] (after 10 days of application, baseline 64.2±21.0, 5% NMN emulsion topical) worked out at 31.6±25.0. Further, in data set [1] (setting [4]), the “decrease of total WOMAC score” value is 48.6±33.7%, the “reduction of WOMAC "pain" criterion” value was determined as 50.1±31.3% and the “reduction of WOMAC "stiffness" criterion” value is listed as 52.5±32.9%. For the same compound, the “reduction of WOMAC "function" criterion” value in data set [1] (after 10 days vs baseline, p<0.01) is 47.5±35.6%. Also, the “subjects with improvement characterised as 'considerable'” value in data set [2] (3 subjects) worked out at 25.0%. In data set [2] (4 subjects), the “subjects with improvement characterised as 'a lot'” value amounted to 33.3% and the “subjects with improvement characterised as 'slight'” value came to 33.3%. In addition, the “subjects who experienced improvement” value in data set [2] (12 subjects) was determined as 91.7%. In data set [2] (Likert scale), the “participants satisfied with the evolution of their chronic lumbalgia” value amounted to 91.7% and the “participants very satisfied with the evolution of their chronic lumbalgia” value is listed as 33.3%. In data set [3], the adverse side effects result is “neither any adverse side effects” and the allergies result is on record as “nor developed any allergies”.

The values are drawn from US20230172959A1, “USE OF NMN FOR THE PREVENTION AND/OR TREATMENT OF A BACK PAIN AND CORRESPONDING COMPOSITIONS” (NUVAMID SA, priority 2020, published 2023).
